The values that follow come from ChEMBL document CHEMBL5584337, “Structure-Based Drug Design of 2-Amino-[1,1'-biphenyl]-3-carboxamide Derivatives as Selective PKMYT1 Inhibitors for the Treatment of CCNE1-Amplified Breast Cancer” (J Med Chem, 2024).

Series [1] deals with HCC1569. Briefly: Antiproliferative activity against human HCC1569 cells incubated for 48 to 96 hrs by CCK-8 assay. The format is functional, cell-based. For orientation: Tetrazolium assays rely on reduction of a dye to a coloured formazan, in cell work by metabolically active cells.
Series [2] relates to ZR-75-1. Briefly: Antiproliferative activity against human ZR-75-1 cells incubated for 48 to 96 hrs by CCK-8 assay. The format is functional, cell-based.
For series [3], the target named is Membrane-associated tyrosine- and threonine-specific cdc2-inhibitory kinase (Homo sapiens, UniProt Q99640). Briefly: Inhibition of recombinant human GST-tagged PKMYT1 (75 to 362 residues) expressed in insect cells using GTDEGIYDVPLLG as substrate preincubated for 15 mins followed by substrate and ATP addition and measured after 1 hr by ADP-Glo kinase assay. The arrangement: species or system Insect cell. (In general: ADP-Glo first removes unused ATP, then detects ADP through luciferase.)

In the next series the target is Wee1-like protein kinase (Homo sapiens, UniProt P30291). The series can be described thus: Inhibition of recombinant full-length human GST-tagged Wee1 expressed in insect cells using KIGEGTYGVVYKG as substrate preincubated for 15 mins followed by substrate and ATP addition and measured after 1 hr by ADP-Glo kinase assay. The arrangement: species or system Insect cell.

Another series addresses Activated CDC42 kinase 1 (Homo sapiens, UniProt Q07912). Briefly: Inhibition of ACK1 (unknown origin).
In series [4] the target is Tyrosine-protein kinase ABL2 (Homo sapiens, UniProt P42684). The series can be described thus: Inhibition of Arg (unknown origin).
Series [5] addresses Tyrosine-protein kinase Blk (Homo sapiens, UniProt P51451). Briefly: Inhibition of BLK (unknown origin).
The target in series [6] is Protein-tyrosine kinase 6 (Homo sapiens, UniProt Q13882). The series can be described thus: Inhibition of BRK (unknown origin).
The target of series [7] is Proto-oncogene tyrosine-protein kinase Src (Homo sapiens, UniProt P12931). The series can be described thus: Inhibition of cSRC (unknown origin).
The target in series [8] is Epithelial discoidin domain-containing receptor 1 (Homo sapiens, UniProt Q08345). Briefly: Inhibition of DDR1 (unknown origin).
The next series has as its target Ephrin type-A receptor 1 (Homo sapiens, UniProt P21709). Briefly: Inhibition of EphA1 (unknown origin).
The next series deals with Ephrin type-B receptor 2 (Homo sapiens, UniProt P29323). The series can be described thus: Inhibition of EphB2 (unknown origin).
The next series deals with Ephrin type-B receptor 1 (Homo sapiens, UniProt P54762). The series can be described thus: Inhibition of EphB1 (unknown origin).
The target in the next series is Ephrin type-B receptor 4 (Homo sapiens, UniProt P54760). The series can be described thus: Inhibition of EphB4 (unknown origin).
For series [9], the target named is Tyrosine-protein kinase Fgr (Homo sapiens, UniProt P09769). The series can be described thus: Inhibition of Fgr (unknown origin).
Series [10] concerns the target Tyrosine-protein kinase HCK (Homo sapiens, UniProt P08631). The series can be described thus: Inhibition of HCK (unknown origin).
The target in series [11] is Tyrosine-protein kinase Lck (Homo sapiens, UniProt P06239). The series can be described thus: Inhibition of LCK (unknown origin).
The target in series [12] is Tyrosine-protein kinase Lyn (Homo sapiens, UniProt P07948). The series can be described thus: Inhibition of Lyn (unknown origin).
Series [13] deals with Tyrosine-protein kinase Yes (Homo sapiens, UniProt P07947). Briefly: Inhibition of YES (unknown origin).
The target in series [14] is Cyclin-dependent kinase 1 (Homo sapiens) (UniProt P06493). The series can be described thus: Inhibition of CDK1 phosphorylation at Thr14 in human HCC1569 cells after 4 hrs by Western blotting analysis. The format is cell-based. The following applies: dose 0.1-2 µM. (In general: Immunoblotting shows a protein as a band on a membrane.)
The target is the same in series [15]. Briefly: Inhibition of CDK1 phosphorylation at Thr14 in human HCC1569 cells at 2 uM after 8 to 12 hrs by Western blotting analysis. The following applies: time 8-12 hrs. The format is cell-based.
For series [16] the target is unchanged. Briefly: Inhibition of CDK1 phosphorylation at […] in human HCC1569 cells at 2 uM after 0.5 to 12 hrs by Western blotting analysis. The settings on record: time 0.5-12 hrs. The format is cell-based.
Series [17] deals with Cyclin-dependent kinase 2 (Homo sapiens) (UniProt P24941). The series can be described thus: Inhibition of CDK2 phosphorylation at Tyr15 in human HCC1569 cells at 0.1 to 2 uM after 4 hrs by Western blotting analysis. The following applies: dose 0.1-2 µM. The format is cell-based.
The test system of series [18] is HCC1569. The series can be described thus: Inhibition of colony formation in CCNE1-amplified human HCC1569 cells incubated for 14 days by crystal violet staining based microplate reader assay. The format is functional, cell-based. The following applies: HCC1569, 336 h.
Series [19] has as its system ZR-75-1. The series can be described thus: Inhibition of colony formation in human ZR-75-1 cells incubated for 14 days by crystal violet staining based microplate reader assay. The format is functional, cell-based. The settings on record: ZR-75-1, 336 h.
Series [20] has as its system HCC1569. The series can be described thus: Induction of DNA damage in human HCC1569 cells assessed as upregulation of gammaH2AX level after 4 hrs by Western blotting analysis. The format is functional, cell-based. The following applies: dose 0.1-2 µM.
The test system of series [21] is HCC1569. The series can be described thus: Induction of DNA damage in human HCC1569 cells assessed as upregulation of gammaH2AX level at 2 uM by Western blotting analysis. The format is functional, cell-based. The settings on record: time 0.5-12 hrs, TDE = time-dependent effect.
The test system of series [22] is HCC1569. Briefly: Synergistic cytotoxicity against human HCC1569 cells after 48 to 96 hrs. The format is functional, cell-based. The following applies: time 48-96 hrs.
Series [23] relates to HCC1569. Briefly: Induction of DNA damage in human HCC1569 cells assessed as upregulation of gammaH2AX level at 62.5 to 500 nM after 48 hrs in presence of gemcitabine by Western blotting analysis. The format is functional, cell-based. The settings on record: dose 62.5-500 nM.
Series [24] in a line: Cmax in Sprague-Dawley rat at 10 mg/kg, po measured upto 24 hrs by LC-MS/MS analysis. The settings on record: in vivo. The format is ADME, organism-based.
Series [25] can be described thus: AUC(0 to t) in Sprague-Dawley rat at 10 mg/kg, po measured upto 24 hrs by LC-MS/MS analysis. The format is ADME, organism-based. The settings on record: in vivo.
The nature of series [26]: Clearance in Sprague-Dawley rat at 10 mg/kg, po measured upto 24 hrs by LC-MS/MS analysis. The format is ADME, organism-based. The following applies: in vivo.

Calls of active or inactive are those of the source. The rule behind the calls is not given here.

Chain of Cyclin-dependent kinase 1 (Homo sapiens) (P06493 whole entry, looked up): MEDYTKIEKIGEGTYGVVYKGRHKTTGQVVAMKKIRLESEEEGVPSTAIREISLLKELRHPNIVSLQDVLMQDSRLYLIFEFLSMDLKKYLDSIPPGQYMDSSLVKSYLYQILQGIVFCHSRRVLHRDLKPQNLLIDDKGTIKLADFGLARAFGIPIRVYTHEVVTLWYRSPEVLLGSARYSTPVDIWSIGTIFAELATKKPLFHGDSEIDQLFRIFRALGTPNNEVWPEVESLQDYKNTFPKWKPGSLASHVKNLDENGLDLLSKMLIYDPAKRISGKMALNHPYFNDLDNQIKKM
Chain of Membrane-associated tyrosine- and threonine-specific cdc2-inhibitory kinase (Q99640 whole entry, the tested form may be a part): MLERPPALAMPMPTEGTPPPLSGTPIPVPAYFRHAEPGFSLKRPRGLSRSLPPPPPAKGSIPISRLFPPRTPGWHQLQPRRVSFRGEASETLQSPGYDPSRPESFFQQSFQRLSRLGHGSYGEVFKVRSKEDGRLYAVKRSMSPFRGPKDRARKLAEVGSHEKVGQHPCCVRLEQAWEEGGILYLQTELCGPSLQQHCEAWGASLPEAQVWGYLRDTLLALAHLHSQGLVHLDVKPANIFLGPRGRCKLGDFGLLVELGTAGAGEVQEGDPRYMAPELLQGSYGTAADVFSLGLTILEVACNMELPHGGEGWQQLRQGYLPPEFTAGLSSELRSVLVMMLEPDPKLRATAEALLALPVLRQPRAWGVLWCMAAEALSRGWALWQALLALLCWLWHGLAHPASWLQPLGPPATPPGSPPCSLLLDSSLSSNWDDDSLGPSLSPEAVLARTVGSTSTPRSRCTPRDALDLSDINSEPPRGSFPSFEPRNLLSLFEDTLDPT
Chain of Tyrosine-protein kinase Blk (P51451 whole entry): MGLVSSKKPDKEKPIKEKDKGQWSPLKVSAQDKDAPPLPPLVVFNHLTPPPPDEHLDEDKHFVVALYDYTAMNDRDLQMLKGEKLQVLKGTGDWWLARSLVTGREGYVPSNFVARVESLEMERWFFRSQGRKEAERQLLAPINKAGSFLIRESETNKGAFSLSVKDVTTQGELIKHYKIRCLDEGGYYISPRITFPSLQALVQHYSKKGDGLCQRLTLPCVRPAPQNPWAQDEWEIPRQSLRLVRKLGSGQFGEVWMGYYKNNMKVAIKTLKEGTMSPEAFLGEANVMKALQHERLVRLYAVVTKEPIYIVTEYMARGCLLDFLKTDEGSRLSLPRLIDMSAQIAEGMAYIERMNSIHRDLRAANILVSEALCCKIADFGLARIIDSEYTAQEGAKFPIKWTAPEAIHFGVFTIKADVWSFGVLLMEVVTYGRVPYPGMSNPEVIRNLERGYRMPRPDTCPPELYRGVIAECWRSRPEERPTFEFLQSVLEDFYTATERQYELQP
Chain of Tyrosine-protein kinase Lyn (P07948 whole entry): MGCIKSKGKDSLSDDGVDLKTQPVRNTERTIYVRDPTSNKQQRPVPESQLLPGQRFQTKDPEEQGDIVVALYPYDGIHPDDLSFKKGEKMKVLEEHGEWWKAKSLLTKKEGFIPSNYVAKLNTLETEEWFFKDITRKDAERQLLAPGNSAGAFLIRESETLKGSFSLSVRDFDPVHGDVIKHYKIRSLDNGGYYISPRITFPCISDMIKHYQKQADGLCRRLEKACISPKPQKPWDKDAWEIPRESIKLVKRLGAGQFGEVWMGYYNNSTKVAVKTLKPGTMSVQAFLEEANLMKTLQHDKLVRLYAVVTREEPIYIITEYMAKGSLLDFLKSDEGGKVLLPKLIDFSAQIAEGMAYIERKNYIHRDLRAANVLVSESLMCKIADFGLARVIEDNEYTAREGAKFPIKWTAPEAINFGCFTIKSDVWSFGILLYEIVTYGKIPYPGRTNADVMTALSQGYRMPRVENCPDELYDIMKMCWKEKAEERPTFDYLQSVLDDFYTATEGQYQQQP
Chain of Ephrin type-B receptor 1 (P54762 whole entry): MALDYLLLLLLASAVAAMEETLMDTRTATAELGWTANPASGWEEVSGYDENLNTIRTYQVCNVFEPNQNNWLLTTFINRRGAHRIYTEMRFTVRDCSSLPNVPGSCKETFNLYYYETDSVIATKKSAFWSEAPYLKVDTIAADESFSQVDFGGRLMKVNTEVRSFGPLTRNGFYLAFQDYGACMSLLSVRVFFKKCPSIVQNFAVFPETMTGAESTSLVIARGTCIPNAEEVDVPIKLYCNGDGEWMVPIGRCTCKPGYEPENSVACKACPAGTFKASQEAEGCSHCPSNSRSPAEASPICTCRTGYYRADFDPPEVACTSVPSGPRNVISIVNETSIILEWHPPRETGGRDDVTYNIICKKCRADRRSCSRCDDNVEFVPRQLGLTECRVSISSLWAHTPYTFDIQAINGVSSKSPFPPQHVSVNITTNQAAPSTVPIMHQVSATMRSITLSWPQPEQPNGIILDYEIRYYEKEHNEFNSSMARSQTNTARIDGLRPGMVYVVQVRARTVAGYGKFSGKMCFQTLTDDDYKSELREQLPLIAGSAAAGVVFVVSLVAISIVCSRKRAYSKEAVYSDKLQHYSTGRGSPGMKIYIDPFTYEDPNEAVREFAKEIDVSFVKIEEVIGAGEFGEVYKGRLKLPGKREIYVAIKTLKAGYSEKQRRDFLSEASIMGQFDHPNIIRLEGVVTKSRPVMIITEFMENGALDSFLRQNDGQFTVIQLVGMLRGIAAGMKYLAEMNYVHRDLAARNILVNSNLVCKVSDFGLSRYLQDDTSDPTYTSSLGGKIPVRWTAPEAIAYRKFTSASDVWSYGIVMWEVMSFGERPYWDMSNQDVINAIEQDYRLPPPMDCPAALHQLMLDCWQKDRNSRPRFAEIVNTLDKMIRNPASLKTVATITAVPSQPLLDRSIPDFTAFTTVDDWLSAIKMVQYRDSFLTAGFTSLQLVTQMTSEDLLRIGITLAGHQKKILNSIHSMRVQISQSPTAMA
Chain of Ephrin type-A receptor 1 (P21709 whole entry): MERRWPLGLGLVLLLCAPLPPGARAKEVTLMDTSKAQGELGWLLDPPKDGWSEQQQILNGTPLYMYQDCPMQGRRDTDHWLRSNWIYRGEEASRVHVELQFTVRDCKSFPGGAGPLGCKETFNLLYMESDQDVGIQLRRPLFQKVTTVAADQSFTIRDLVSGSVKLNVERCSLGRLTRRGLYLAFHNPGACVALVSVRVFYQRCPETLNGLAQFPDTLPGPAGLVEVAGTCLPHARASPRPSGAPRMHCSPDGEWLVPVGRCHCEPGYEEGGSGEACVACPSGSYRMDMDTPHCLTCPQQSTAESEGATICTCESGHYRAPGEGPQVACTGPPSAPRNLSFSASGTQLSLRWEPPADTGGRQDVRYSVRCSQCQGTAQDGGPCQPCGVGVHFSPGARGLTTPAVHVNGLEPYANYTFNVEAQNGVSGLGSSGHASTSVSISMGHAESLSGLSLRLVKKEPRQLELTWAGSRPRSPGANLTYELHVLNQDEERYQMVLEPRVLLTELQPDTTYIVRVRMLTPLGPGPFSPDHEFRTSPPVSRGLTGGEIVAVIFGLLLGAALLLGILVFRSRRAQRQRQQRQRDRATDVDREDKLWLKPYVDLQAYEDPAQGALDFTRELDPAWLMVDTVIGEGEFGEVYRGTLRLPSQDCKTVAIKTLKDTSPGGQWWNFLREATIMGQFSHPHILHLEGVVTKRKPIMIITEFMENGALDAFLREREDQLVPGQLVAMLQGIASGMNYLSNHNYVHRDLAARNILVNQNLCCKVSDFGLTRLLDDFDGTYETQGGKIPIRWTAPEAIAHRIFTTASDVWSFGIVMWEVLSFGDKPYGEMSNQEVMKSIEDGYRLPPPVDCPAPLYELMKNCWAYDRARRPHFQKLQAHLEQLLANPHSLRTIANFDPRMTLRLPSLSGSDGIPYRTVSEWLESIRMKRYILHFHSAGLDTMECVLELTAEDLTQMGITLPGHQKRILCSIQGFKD
Chain of Ephrin type-B receptor 2 (P29323 whole entry): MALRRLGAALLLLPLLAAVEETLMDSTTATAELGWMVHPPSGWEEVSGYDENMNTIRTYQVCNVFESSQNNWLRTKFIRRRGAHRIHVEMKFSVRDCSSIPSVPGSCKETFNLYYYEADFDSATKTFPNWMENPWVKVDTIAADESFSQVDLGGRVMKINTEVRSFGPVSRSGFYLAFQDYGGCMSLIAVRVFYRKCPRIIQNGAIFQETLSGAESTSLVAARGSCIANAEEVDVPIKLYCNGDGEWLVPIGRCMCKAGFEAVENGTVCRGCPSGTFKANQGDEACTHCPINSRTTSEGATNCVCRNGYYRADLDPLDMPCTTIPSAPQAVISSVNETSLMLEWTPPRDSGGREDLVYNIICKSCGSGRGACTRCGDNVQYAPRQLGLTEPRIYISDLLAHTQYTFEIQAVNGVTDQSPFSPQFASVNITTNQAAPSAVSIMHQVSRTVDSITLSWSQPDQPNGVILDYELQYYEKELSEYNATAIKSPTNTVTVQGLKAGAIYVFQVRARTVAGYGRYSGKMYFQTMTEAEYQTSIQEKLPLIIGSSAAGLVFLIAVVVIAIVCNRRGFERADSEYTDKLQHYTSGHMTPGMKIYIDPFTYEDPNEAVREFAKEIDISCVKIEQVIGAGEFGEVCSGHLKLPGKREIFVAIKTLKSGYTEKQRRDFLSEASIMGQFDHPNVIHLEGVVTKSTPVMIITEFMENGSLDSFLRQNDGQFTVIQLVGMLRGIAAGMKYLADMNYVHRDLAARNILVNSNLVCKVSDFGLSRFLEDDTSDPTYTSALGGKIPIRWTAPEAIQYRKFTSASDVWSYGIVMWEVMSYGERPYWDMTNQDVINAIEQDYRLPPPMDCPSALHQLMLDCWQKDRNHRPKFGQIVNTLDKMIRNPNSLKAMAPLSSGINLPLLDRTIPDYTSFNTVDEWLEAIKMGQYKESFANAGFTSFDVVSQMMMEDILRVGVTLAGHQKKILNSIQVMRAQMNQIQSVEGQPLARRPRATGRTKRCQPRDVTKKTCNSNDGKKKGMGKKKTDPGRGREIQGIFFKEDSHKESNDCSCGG

For `Cc1ccc(O)c(C)c1-c1cc(-c2ccnc(N3C[C@@H]4C[C@H]3CN4)c2)cc(C(N)=O)c1N`, the results for the IC50 with HCC1569 [1] and in the series with ZR-75-1 [2] were 7.78 µM and more than 20 µM, respectively.
The matching figures for `Cc1ccc(O)c(C)c1-c1cc(-c2ccnc(OC[C@H]3CCNC3)c2)cc(C(N)=O)c1N`: 2.19 µM and 8.53 µM.
The matching figures for `Cc1ccc(O)c(C)c1-c1cc(-c2ccnc(N3CC[C@@H](N)C3)c2)cc(C(N)=O)c1N`: 0.29 µM and 8.49 µM.
The matching figures for `Cc1ccc(O)c(C)c1-c1cc(-c2ccnc(N3CC[C@H](N)C3)c2)cc(C(N)=O)c1N`: 1.65 µM and more than 20 µM.
As to `Cc1ccc(O)c(C)c1-c1cc(-c2ccnc(N3CCNCC3)c2)cc(C(N)=O)c1N`, the IC50 (commonly the concentration that inhibits the measured activity by half) in the series on HCC1569 [1] was 1.39 µM; in the series on ZR-75-1 [2], more than 20 µM.
For `Cc1ccc(O)c(C)c1-c1cc(-c2ccncc2)cc(C(N)=O)c1N`, the IC50 in the series on HCC1569 [1] was 0.77 µM; with ZR-75-1 [2], 11.6 µM; in [3] it was 0.101 µM.
For the compound `Cc1ccc(O)c(C)c1-c1cc(-c2cc(OC(F)F)nc(N3CC[C@@H](N)C3)c2)cc(C(N)=O)c1N`, the IC50 in the series with HCC1569 [1] was determined as 0.8 µM; in the series with ZR-75-1 [2] it was 4.15 µM.
The matching figures for `Cc1ccc(O)c(C)c1-c1cc(-c2ccnc(OCCN)c2)cc(C(N)=O)c1N`: 1.66 µM and 4.4 µM.
As to `Cc1ccc(O)c(C)c1-c1cc(-c2cc(F)nc(N3CC[C@@H](N)C3)c2)cc(C(N)=O)c1N`, the IC50 came to 0.25 µM with HCC1569 [1]; 4.96 µM in the series on ZR-75-1 [2]; 0.0165 µM in series [3]; 8.2 µM on Wee1-like protein kinase; 0.268 µM on Activated CDC42 kinase 1; 0.0109 µM in [4]. Besides, the IC50 in series [5] was determined as 0.0601 µM; in series [6], 0.008 µM; in series [7] it was 0.0099 µM; in [8], 0.0106 µM; against Ephrin type-A receptor 1, 0.11 µM; on Ephrin type-B receptor 2, 0.0272 µM. For the same compound, the 50% inhibitory concentration (IC50) against Ephrin type-B receptor 1 is 0.0416 µM; against Ephrin type-B receptor 4, 0.134 µM; in series [9], 0.0093 µM; in series [10] it was 0.0486 µM; in series [11] it was 0.0145 µM; in [12], 0.0183 µM. This compound also returned an IC50 in [13] of more than 1 µM. The values for the inhibition result in series [14] and in series [15] were “Dose-Dependent Effect” and 100%, respectively. The inhibition entry in [16] and in [17] was “inactive” throughout. Further, the EC50 (in general, the concentration that produces a half-maximal response) was 0.117 µM in the series with HCC1569 [18] and more than 5 µM in the series on ZR-75-1 [19]. For the same compound, the Activity result with HCC1569 [20] was “Dose-Dependent Effect”; in the series on HCC1569 [21] it was “Tde”. The outcome in the series with HCC1569 [22] and in the series with HCC1569 [23] was Active. The concentration in series [24] peaked (Cmax) at 6.17 ng/mL. The AUCt in [25] was 6.51 ng·h/mL. The compound further came in with a CL in [26] of 5.53 L/h/kg.
For the compound `Cc1ccc(O)c(C)c1-c1cc(-c2ccnc(OCCCN)c2)cc(C(N)=O)c1N`, the figures for the IC50 in the series with HCC1569 [1] and in the series on ZR-75-1 [2] were 9.48 µM and 15.4 µM, respectively.
For `Cc1ccc(O)c(C)c1-c1cc(-c2ccnc(OC[C@@H]3CCCN3)c2)cc(C(N)=O)c1N`, in that order: 1.18 µM and 7.12 µM.
As to `Cc1ccc(O)c(C)c1-c1cc(-c2ccnc(N3CCCNCC3)c2)cc(C(N)=O)c1N`, the IC50 is 0.29 µM with HCC1569 [1] and 4.83 µM with ZR-75-1 [2].
As for `Cc1ccc(O)c(C)c1-c1cc(-c2ccnc(N3CCOCC3)c2)cc(C(N)=O)c1N`, the IC50 is 1.84 µM in the series on HCC1569 [1] and more than 20 µM with ZR-75-1 [2].
The matching figures for `Cc1ccc(O)c(C)c1-c1cc(-c2ccnc(N3C4CNCC3C4)c2)cc(C(N)=O)c1N`: more than 20 µM and more than 20 µM.
As to `CNCCCOc1cc(-c2cc(C(N)=O)c(N)c(-c3c(C)ccc(O)c3C)c2)ccn1`, the IC50 is 2.49 µM in the series with HCC1569 [1] and more than 20 µM in the series with ZR-75-1 [2].
The matching figures for `CN[C@@H]1CCN(c2cc(-c3cc(C(N)=O)c(N)c(-c4c(C)ccc(O)c4C)c3)ccn2)C1`: 0.47 µM and 5.6 µM.
`Cc1ccc(O)c(C)c1-c1cc(-c2ccnc(OC3CCNCC3)c2)cc(C(N)=O)c1N`: the values for the IC50 in the series with HCC1569 [1] and with ZR-75-1 [2] were 3.84 µM and more than 20 µM, respectively.
